From patent US20260234135A1, “CRYSTALLINE FORMS OR SALTS OF A DEUTERATED COMPOUND” (ALEBUND PHARMACEUTICALS (HONG KONG) LIMITED, priority 2023, published 2026)
Read-outs that look alike come from different tables or passages of the source.

Legend:
[1] = for Form or purity change after storage: 60° C./close and 40° C./75% RH/open for 2/4/8 weeks
[2] = Hygroscopicity evaluation by DVS at 25° C.; assay type: physicochemical
Experimental: DVS was measured via a SMS (Surface Measurement Systems) DVS Intrinsic. The relative humidity at 25° C. were calibrated against deliquescence point of LiCl, Mg(NO3)2 and KCl.

Compound: N=C(N)NCCCC(N)C(=O)O.[2H]C([2H])(Cc1nc(-c2ccccc2)oc1C)Oc1ccc(C[C@H](OC)C(=O)O)c2sccc12 [arginine salt Form A]
- Area (%) of impurity peak RRT 0.88 ([1]; 40° C./75% RH, 2 weeks): 0.14%
- Area (%) of impurity peak RRT 1.14 ([1]; 40° C./75% RH, 2 weeks): 0.06%
- Area (%) of impurity peak RRT 1.34 ([1]; 40° C./75% RH, 2 weeks): 0.22%
- Area (%) of impurity peak RRT 0.88 ([1]; 40° C./75% RH, 4 weeks): 0.11%
- Area (%) of impurity peak RRT 1.34 ([1]; 40° C./75% RH, 4 weeks): 0.19%
- Area (%) of impurity peak RRT 0.88 ([1]; 40° C./75% RH, 8 weeks): 0.07%
- Area (%) of impurity peak RRT 1.34 ([1]; 40° C./75% RH, 8 weeks): 0.19%
- HPLC Purity (area %), main peak RRT 1.00 ([1]; 40° C./75% RH/open, 2 weeks): 99.59 area %
- HPLC Reults of initial (%) ([1]; 40° C./75% RH/open, 2 weeks): 99.87%
- HPLC Purity (area %), main peak RRT 1.00 ([1]; 40° C./75% RH/open, 4 weeks): 99.70 area %
- HPLC Reults of initial (%) ([1]; 40° C./75% RH/open, 4 weeks): 99.98%
- HPLC Purity (area %), main peak RRT 1.00 ([1]; 40° C./75% RH/open, 8 weeks): 99.74 area %
- HPLC Reults of initial (%) ([1]; 40° C./75% RH/open, 8 weeks): 100.02%
- Area (%) of impurity peak RRT 0.88 ([1]; 60° C., 2 weeks): 0.06%
- Area (%) of impurity peak RRT 1.34 ([1]; 60° C., 2 weeks): 0.18%
- Area (%) of impurity peak RRT 0.88 ([1]; 60° C., 4 weeks): 0.09%
- Area (%) of impurity peak RRT 1.34 ([1]; 60° C., 4 weeks): 0.18%
- Area (%) of impurity peak RRT 0.81 ([1]; 60° C., 8 weeks): 0.05%
- Area (%) of impurity peak RRT 0.88 ([1]; 60° C., 8 weeks): 0.06%
- Area (%) of impurity peak RRT 1.34 ([1]; 60° C., 8 weeks): 0.18%
- Form or purity change after storage [1]: No form or purity decrease
- HPLC Purity (area %), main peak RRT 1.00 ([1]; 60° C./close, 2 weeks): 99.76 area %
- HPLC Reults of initial (%) ([1]; 60° C./close, 2 weeks): 100.04%
- HPLC Purity (area %), main peak RRT 1.00 ([1]; 60° C./close, 4 weeks): 99.73 area %
- HPLC Reults of initial (%) ([1]; 60° C./close, 4 weeks): 100.01%
- HPLC Purity (area %), main peak RRT 1.00 ([1]; 60° C./close, 8 weeks): 99.71 area %
- HPLC Reults of initial (%) ([1]; 60° C./close, 8 weeks): 99.99%
- Area (%) of impurity peak RRT 0.88 ([1]; Initial): 0.07%
- Area (%) of impurity peak RRT 1.34 ([1]; Initial): 0.20%
- HPLC Purity (area %), main peak RRT 1.00 ([1]; Initial): 99.72 area %
- Hygroscopicity ([2]; DVS, 25° C.): slightly hygroscopicity
- Water uptake up to 80% RH ([2]; DVS, 25° C.): 0.5%
- Form change after DVS test ([2]; XRPD after DVS): No form change

Compound: [2H]C([2H])(Cc1nc(-c2ccccc2)oc1C)Oc1ccc(C[C@H](OC)C(=O)O)c2sccc12 [free acid Form E]
- Area (%) of impurity peak RRT 0.88 ([1]; 40° C./75% RH, 2 weeks): 0.33%
- Area (%) of impurity peak RRT 1.14 ([1]; 40° C./75% RH, 2 weeks): 0.15%
- Area (%) of impurity peak RRT 1.28 ([1]; 40° C./75% RH, 2 weeks): 0.18%
- Area (%) of impurity peak RRT 1.33 ([1]; 40° C./75% RH, 2 weeks): 0.25%
- Area (%) of impurity peak RRT 0.88 ([1]; 40° C./75% RH, 4 weeks): 0.35%
- Area (%) of impurity peak RRT 1.14 ([1]; 40° C./75% RH, 4 weeks): 0.15%
- Area (%) of impurity peak RRT 1.28 ([1]; 40° C./75% RH, 4 weeks): 0.23%
- Area (%) of impurity peak RRT 1.33 ([1]; 40° C./75% RH, 4 weeks): 0.27%
- Area (%) of impurity peak RRT 0.88 ([1]; 40° C./75% RH, 8 weeks): 0.32%
- Area (%) of impurity peak RRT 1.14 ([1]; 40° C./75% RH, 8 weeks): 0.13%
- Area (%) of impurity peak RRT 1.28 ([1]; 40° C./75% RH, 8 weeks): 0.20%
- Area (%) of impurity peak RRT 1.33 ([1]; 40° C./75% RH, 8 weeks): 0.27%
- HPLC Purity (area %), main peak RRT 1.00 ([1]; 40° C./75% RH/open, 2 weeks): 99.08 area %
- HPLC Reults of initial (%) ([1]; 40° C./75% RH/open, 2 weeks): 100.07%
- HPLC Purity (area %), main peak RRT 1.00 ([1]; 40° C./75% RH/open, 4 weeks): 99.00 area %
- HPLC Reults of initial (%) ([1]; 40° C./75% RH/open, 4 weeks): 99.99%
- HPLC Purity (area %), main peak RRT 1.00 ([1]; 40° C./75% RH/open, 8 weeks): 99.03 area %
- HPLC Reults of initial (%) ([1]; 40° C./75% RH/open, 8 weeks): 100.02%
- Area (%) of impurity peak RRT 0.88 ([1]; 60° C., 2 weeks): 0.32%
- Area (%) of impurity peak RRT 1.14 ([1]; 60° C., 2 weeks): 0.16%
- Area (%) of impurity peak RRT 1.28 ([1]; 60° C., 2 weeks): 0.23%
- Area (%) of impurity peak RRT 1.33 ([1]; 60° C., 2 weeks): 0.25%
- Area (%) of impurity peak RRT 0.88 ([1]; 60° C., 4 weeks): 0.38%
- Area (%) of impurity peak RRT 1.14 ([1]; 60° C., 4 weeks): 0.17%
- Area (%) of impurity peak RRT 1.28 ([1]; 60° C., 4 weeks): 0.26%
- Area (%) of impurity peak RRT 1.33 ([1]; 60° C., 4 weeks): 0.29%
- Area (%) of impurity peak RRT 0.88 ([1]; 60° C., 8 weeks): 0.34%
- Area (%) of impurity peak RRT 1.14 ([1]; 60° C., 8 weeks): 0.14%
- Area (%) of impurity peak RRT 1.28 ([1]; 60° C., 8 weeks): 0.23%
- Area (%) of impurity peak RRT 1.33 ([1]; 60° C., 8 weeks): 0.27%
- Form or purity change after storage [1]: No form or purity decrease
- HPLC Purity (area %), main peak RRT 1.00 ([1]; 60° C./close, 2 weeks): 99.04 area %
- HPLC Reults of initial (%) ([1]; 60° C./close, 2 weeks): 100.03%
- HPLC Purity (area %), main peak RRT 1.00 ([1]; 60° C./close, 4 weeks): 98.89 area %
- HPLC Reults of initial (%) ([1]; 60° C./close, 4 weeks): 99.88%
- HPLC Purity (area %), main peak RRT 1.00 ([1]; 60° C./close, 8 weeks): 98.96 area %
- HPLC Reults of initial (%) ([1]; 60° C./close, 8 weeks): 99.95%
- Area (%) of impurity peak RRT 0.88 ([1]; Initial): 0.31%
- Area (%) of impurity peak RRT 1.14 ([1]; Initial): 0.16%
- Area (%) of impurity peak RRT 1.28 ([1]; Initial): 0.26%
- Area (%) of impurity peak RRT 1.33 ([1]; Initial): 0.25%
- HPLC Purity (area %), main peak RRT 1.00 ([1]; Initial): 99.01 area %
